Calls of active or inactive are those of the source. The rule behind the calls is not given here.
Experiments:
[1] = molecular target: Cystic fibrosis transmembrane conductance regulator (Homo sapiens, UniProt P13569); test: CSE-HRP surface expression (Cell surface expression-horseradish peroxidase) assay
[2] = molecular target: T1, Alpha-2B adrenergic receptor (Homo sapiens) (UniProt P18089); test: Alpha2B (h) Eurofins-Cerep binding assay; design: ligand concentration 2.5 nM; details: filed as antagonist, Compound concentration 10.0 uM
T1 sequence (whole entry): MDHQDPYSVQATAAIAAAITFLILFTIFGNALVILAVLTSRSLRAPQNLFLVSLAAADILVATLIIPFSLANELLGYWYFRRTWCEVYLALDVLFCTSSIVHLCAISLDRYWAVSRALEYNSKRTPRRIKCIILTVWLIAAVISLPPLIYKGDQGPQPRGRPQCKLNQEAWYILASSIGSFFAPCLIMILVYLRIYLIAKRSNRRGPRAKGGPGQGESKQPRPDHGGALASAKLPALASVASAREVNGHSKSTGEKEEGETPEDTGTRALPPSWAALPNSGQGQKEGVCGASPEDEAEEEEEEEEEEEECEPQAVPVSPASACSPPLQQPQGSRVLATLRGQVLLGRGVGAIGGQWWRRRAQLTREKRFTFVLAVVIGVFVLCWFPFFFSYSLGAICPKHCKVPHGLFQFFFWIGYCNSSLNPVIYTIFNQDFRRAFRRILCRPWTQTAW

[3] = molecular target: Cannabinoid receptor 1 (Homo sapiens) (UniProt P21554); test: CB1 (h) Eurofins-Cerep binding assay; design: ligand concentration 0.5 nM; details: filed as agonist, Compound concentration 10.0 uM
[4] = molecular target: Tumor necrosis factor (Homo sapiens) (UniProt P01375); test: TNF-alpha (h) Eurofins-Cerep binding assay; design: ligand concentration 0.1 nM; details: filed as agonist, Compound concentration 10.0 uM
[5] = molecular target: Motilin receptor (Homo sapiens) (UniProt O43193); test: motilin (h Eurofins-Cerep binding assay; design: ligand concentration 0.05 nM; details: filed as agonist, Compound concentration 10.0 uM
[6] = molecular target: 5-hydroxytryptamine receptor 1B (Homo sapiens) (UniProt P28222); test: 5-HT1B(h) Eurofins-Cerep binding assay; design: ligand concentration 1 nM; details: filed as antagonist, Compound concentration 10.0 uM
[7] = system: Tyrosine-protein kinase ABL1 (Homo sapiens), P00519 [F317L]; details: Compound concentration 1000.0 nM
[8] = system: Tyrosine-protein kinase ABL1 (Homo sapiens), P00519 [M351T]; details: Compound concentration 1000.0 nM
[9] = system: Tyrosine-protein kinase ABL1 (Homo sapiens), P00519 [T315I]; details: Compound concentration 1000.0 nM
[10] = system: Tyrosine-protein kinase ABL1 (Homo sapiens), P00519 [Y253F]; details: Compound concentration 1000.0 nM
[11] = molecular target: Tyrosine-protein kinase ABL1 (Homo sapiens) (UniProt P00519); details: Compound concentration 1000.0 nM
[12] = molecular target: Calcium/calmodulin-dependent protein kinase type II subunit alpha (Homo sapiens) (UniProt Q9UQM7); details: Compound concentration 1000.0 nM
[13] = molecular target: Cyclin-dependent kinase 19 (Homo sapiens) (UniProt Q9BWU1); details: Compound concentration 1000.0 nM
[14] = molecular target: Macrophage colony-stimulating factor 1 receptor (Homo sapiens) (UniProt P07333); details: Compound concentration 1000.0 nM
[15] = molecular target: Ephrin type-A receptor 7 (Homo sapiens) (UniProt Q15375); details: Compound concentration 1000.0 nM
[16] = system: Receptor-type tyrosine-protein kinase FLT3 (Homo sapiens), P36888 [N841I]; details: Compound concentration 1000.0 nM
[17] = molecular target: Vascular endothelial growth factor receptor 3 (Homo sapiens) (UniProt P35916); details: Compound concentration 1000.0 nM
[18] = molecular target: Beta-adrenergic receptor kinase 1 (Homo sapiens) (UniProt P25098); details: Compound concentration 1000.0 nM
[19] = molecular target: Mitogen-activated protein kinase kinase kinase 4 (Homo sapiens) (UniProt Q9Y6R4); details: Compound concentration 1000.0 nM
[20] = molecular target: MAP/microtubule affinity-regulating kinase 3 (Homo sapiens) (UniProt P27448); details: Compound concentration 1000.0 nM
[21] = molecular target: Microtubule-associated serine/threonine-protein kinase 1 (Homo sapiens) (UniProt Q9Y2H9); details: Compound concentration 1000.0 nM
[22] = molecular target: Dual specificity mitogen-activated protein kinase kinase 1 (Homo sapiens) (UniProt Q02750); details: Compound concentration 1000.0 nM
[23] = molecular target: Dual specificity mitogen-activated protein kinase kinase 6 (Homo sapiens) (UniProt P52564); details: Compound concentration 1000.0 nM
[24] = molecular target: Serine/threonine-protein kinase 38 (Homo sapiens) (UniProt Q15208); details: Compound concentration 1000.0 nM
[25] = molecular target: Serine/threonine-protein kinase PAK 1 (Homo sapiens) (UniProt Q13153); details: Compound concentration 1000.0 nM
[26] = molecular target: Serine/threonine-protein kinase PAK 3 (Homo sapiens) (UniProt O75914); details: Compound concentration 1000.0 nM
[27] = molecular target: Platelet-derived growth factor receptor beta (Homo sapiens) (UniProt P09619); details: Compound concentration 1000.0 nM
[28] = molecular target: Phosphatidylinositol 4,5-bisphosphate 3-kinase catalytic subunit alpha isoform (Homo sapiens) (UniProt P42336); details: Compound concentration 1000.0 nM
[29] = molecular target: Serine/threonine-protein kinase pim-1 (Homo sapiens) (UniProt P11309); details: Compound concentration 1000.0 nM
[30] = molecular target: Protein kinase C eta type (Homo sapiens) (UniProt P24723); details: Compound concentration 1000.0 nM
[31] = molecular target: Ribosomal protein S6 kinase alpha-4 (Homo sapiens) (UniProt O75676); details: Compound concentration 1000.0 nM
[32] = molecular target: Serine/threonine-protein kinase SIK2 (Homo sapiens) (UniProt Q9H0K1); details: Compound concentration 1000.0 nM
[33] = molecular target: SNF-related serine/threonine-protein kinase (Homo sapiens) (UniProt Q9NRH2); details: Compound concentration 1000.0 nM
[34] = molecular target: Serine/threonine-protein kinase 35 (Homo sapiens) (UniProt Q8TDR2); details: Compound concentration 1000.0 nM
[35] = molecular target: TGF-beta receptor type-1 (Homo sapiens) (UniProt P36897); details: Compound concentration 1000.0 nM
[36] = molecular target: Serine/threonine-protein kinase TNNI3K (Homo sapiens) (UniProt Q59H18); details: Compound concentration 1000.0 nM
[37] = molecular target: Serine/threonine-protein kinase WNK3 (Homo sapiens) (UniProt Q9BYP7); details: Compound concentration 1000.0 nM
[38] = molecular target: Serine/threonine-protein kinase 32C (Homo sapiens) (UniProt Q86UX6); details: Compound concentration 1000.0 nM
Rattus norvegicus = species on record: Rattus norvegicus; details: Compound concentration 10.0 uM

Serine/threonine-protein kinase PAK 1 (Homo sapiens), sequence (Q13153 whole entry): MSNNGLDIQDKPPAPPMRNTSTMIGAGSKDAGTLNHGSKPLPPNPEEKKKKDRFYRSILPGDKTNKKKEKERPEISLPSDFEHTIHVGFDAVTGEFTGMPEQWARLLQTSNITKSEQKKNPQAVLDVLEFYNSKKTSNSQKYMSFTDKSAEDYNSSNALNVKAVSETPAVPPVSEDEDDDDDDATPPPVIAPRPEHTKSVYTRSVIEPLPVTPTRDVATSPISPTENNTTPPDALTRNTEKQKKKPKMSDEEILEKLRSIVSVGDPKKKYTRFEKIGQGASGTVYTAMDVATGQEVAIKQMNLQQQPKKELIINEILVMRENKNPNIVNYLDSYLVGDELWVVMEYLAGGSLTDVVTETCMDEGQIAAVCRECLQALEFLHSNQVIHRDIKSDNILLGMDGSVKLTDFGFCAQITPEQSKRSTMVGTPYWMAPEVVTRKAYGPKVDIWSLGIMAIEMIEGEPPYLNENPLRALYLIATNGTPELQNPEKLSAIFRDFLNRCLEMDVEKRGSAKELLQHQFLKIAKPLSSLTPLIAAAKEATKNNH
Serine/threonine-protein kinase WNK3 (Homo sapiens), sequence (Q9BYP7 whole entry): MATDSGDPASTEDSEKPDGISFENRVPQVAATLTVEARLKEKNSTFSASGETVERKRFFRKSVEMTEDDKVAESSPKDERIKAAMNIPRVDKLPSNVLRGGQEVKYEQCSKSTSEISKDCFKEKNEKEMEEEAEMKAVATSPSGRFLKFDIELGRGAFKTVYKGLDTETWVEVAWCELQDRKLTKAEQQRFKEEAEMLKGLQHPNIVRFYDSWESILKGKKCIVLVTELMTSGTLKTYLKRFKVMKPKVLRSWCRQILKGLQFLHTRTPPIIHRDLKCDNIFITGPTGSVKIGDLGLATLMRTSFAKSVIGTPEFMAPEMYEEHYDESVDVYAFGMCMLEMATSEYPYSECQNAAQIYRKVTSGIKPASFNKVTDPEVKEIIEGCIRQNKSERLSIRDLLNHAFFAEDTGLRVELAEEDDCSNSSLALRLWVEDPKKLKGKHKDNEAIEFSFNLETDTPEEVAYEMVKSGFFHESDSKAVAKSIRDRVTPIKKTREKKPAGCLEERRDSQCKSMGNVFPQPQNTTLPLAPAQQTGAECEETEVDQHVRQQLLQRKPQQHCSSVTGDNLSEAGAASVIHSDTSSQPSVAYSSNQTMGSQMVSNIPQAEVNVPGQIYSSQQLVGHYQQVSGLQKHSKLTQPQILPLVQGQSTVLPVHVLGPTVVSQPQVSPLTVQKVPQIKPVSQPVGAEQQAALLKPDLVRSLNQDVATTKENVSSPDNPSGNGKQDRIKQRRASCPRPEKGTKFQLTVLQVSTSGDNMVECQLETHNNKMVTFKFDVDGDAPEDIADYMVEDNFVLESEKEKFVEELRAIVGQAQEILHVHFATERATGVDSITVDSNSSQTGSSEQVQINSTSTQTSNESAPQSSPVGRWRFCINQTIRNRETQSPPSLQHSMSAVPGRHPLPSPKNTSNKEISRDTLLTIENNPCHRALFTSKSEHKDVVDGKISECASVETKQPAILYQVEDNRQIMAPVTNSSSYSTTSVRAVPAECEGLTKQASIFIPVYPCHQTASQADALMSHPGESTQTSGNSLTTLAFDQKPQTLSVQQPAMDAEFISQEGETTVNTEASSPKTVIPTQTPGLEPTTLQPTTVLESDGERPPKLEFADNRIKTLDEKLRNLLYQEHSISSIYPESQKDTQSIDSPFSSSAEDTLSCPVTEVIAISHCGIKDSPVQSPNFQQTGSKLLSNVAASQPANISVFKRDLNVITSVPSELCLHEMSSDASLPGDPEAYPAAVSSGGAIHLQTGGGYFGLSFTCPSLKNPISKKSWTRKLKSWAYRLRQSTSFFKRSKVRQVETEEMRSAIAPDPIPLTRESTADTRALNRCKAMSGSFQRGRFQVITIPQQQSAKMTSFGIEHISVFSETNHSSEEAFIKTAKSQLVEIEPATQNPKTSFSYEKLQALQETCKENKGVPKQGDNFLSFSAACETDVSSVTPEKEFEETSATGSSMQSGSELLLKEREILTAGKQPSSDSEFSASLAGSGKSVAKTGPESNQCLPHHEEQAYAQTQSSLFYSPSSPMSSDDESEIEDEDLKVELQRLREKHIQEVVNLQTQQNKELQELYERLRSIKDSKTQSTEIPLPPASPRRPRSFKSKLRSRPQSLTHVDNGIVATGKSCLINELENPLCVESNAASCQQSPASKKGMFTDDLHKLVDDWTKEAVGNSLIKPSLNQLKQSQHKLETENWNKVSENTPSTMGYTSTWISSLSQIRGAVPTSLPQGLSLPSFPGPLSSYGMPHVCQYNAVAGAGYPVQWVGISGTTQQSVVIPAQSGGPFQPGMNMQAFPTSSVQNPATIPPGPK
Cystic fibrosis transmembrane conductance regulator, sequence (P13569 whole entry): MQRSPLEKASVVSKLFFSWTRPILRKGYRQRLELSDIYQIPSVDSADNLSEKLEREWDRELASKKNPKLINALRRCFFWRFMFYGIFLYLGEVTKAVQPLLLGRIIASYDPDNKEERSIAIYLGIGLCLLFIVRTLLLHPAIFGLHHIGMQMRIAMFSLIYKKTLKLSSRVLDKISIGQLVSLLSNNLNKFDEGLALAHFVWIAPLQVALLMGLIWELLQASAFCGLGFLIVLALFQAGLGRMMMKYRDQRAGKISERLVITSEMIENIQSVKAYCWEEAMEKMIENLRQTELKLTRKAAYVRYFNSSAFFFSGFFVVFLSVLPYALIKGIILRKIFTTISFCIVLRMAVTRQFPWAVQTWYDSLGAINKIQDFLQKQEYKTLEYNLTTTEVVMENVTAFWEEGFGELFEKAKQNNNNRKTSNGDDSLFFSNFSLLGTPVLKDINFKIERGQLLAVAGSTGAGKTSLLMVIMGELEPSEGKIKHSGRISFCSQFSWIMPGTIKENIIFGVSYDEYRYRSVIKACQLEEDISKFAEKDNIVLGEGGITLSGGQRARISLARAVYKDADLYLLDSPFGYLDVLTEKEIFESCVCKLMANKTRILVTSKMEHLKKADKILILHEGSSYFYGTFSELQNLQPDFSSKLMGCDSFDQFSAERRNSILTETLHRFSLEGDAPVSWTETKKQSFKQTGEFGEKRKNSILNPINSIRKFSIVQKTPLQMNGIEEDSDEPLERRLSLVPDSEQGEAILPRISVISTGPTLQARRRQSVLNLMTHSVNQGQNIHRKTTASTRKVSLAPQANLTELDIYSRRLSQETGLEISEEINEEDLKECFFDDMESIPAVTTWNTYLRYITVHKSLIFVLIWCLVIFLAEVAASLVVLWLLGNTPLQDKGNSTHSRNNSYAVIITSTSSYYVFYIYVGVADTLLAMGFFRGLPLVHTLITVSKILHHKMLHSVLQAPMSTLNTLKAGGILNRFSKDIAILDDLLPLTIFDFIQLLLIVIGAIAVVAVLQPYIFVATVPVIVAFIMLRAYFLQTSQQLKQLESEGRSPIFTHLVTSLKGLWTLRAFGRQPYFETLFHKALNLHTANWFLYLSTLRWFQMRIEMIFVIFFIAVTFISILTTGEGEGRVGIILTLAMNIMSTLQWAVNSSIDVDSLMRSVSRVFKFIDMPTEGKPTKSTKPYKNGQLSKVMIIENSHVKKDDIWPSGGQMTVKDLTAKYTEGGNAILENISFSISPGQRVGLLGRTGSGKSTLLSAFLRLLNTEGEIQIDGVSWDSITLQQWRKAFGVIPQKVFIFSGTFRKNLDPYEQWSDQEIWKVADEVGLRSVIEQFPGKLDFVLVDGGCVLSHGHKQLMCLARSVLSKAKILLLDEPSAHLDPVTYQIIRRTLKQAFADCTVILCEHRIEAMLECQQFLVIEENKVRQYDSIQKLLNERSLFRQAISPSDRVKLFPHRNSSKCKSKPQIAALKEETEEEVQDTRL
Phosphatidylinositol 4,5-bisphosphate 3-kinase catalytic subunit alpha isoform (Homo sapiens), sequence (P42336 whole entry, canonical isoform): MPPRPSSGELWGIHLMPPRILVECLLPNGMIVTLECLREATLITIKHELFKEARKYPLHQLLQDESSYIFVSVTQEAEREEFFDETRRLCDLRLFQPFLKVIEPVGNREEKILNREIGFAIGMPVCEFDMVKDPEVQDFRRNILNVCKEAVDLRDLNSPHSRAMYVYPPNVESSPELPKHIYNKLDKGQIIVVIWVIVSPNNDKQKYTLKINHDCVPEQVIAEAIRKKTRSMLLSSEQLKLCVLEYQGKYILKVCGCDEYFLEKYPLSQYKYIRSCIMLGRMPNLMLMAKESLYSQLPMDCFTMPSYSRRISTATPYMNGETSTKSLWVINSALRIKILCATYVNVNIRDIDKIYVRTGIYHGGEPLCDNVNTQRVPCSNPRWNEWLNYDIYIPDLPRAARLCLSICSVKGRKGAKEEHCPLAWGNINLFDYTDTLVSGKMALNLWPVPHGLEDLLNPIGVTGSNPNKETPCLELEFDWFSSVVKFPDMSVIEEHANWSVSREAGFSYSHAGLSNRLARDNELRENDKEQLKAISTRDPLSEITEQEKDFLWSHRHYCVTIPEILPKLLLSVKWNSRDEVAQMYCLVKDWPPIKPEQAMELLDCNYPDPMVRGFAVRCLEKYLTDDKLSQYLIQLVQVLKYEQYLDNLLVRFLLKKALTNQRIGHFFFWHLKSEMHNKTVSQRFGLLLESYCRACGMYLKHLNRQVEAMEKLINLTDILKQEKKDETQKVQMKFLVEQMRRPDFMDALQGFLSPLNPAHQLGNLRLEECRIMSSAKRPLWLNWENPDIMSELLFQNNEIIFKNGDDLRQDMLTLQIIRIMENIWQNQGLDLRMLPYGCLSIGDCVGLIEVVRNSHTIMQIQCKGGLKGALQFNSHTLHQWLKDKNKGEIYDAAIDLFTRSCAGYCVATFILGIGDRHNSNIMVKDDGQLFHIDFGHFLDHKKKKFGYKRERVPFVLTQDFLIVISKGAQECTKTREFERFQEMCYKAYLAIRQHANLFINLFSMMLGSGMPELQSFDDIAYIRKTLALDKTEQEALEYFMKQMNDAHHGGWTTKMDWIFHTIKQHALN
Tumor necrosis factor (Homo sapiens), sequence (P01375 whole entry): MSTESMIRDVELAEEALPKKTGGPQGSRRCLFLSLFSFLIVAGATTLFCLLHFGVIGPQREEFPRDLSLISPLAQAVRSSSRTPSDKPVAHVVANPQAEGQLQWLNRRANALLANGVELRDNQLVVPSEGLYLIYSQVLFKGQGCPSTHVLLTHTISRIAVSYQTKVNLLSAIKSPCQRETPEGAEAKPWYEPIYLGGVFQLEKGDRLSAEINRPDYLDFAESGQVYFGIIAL

SMILES | EC50 [1] | % Inhibition of Control Specific Binding (Mean n=2) [2] [%] | % Inhibition of Control Specific Binding (Mean n=2) [3] [%] | % Inhibition of Control Specific Binding (Mean n=2) [4] [%] | % Inhibition of Control Specific Binding (Mean n=2) [5] [%] | % Inhibition of Control Specific Binding (Mean n=2) [6] [%] | residual activity [7] [%] | residual activity [8] [%] | residual activity [9] [%] | residual activity [10] [%] | residual activity [11] [%] | residual activity [12] [%] | residual activity [13] [%] | residual activity [14] [%] | residual activity [15] [%] | residual activity [16] [%] | residual activity [17] [%] | residual activity [18] [%] | residual activity [19] [%] | residual activity [20] [%] | also measured
COc1ccc2c(c1)O[C@@H](c1ccc(OC)c(OC)c1)C[C@H]2NC(=O)C1(c2ccc3c(c2)OC(F)(F)O3)CC1 [A-1596586] | 130 nM (active) | 63.5 | 40.8 | -9.2 | 10.7 | 2.8 | 94 | 78 | 82 | 78 | 80 | 98 | 93 | 82 | 86 | 100 | 91 | 100 | 95 | 100 | residual activity [21]: 100%; residual activity [22]: 86%; residual activity [23]: 100%; residual activity [24]: 91%; residual activity [25]: 89%; residual activity [26]: 87%; residual activity [27]: 100%; residual activity [28]: 86%; residual activity [29]: 91%; residual activity [30]: 96%; residual activity [31]: 81%; residual activity [32]: 95%; residual activity [33]: 90%; residual activity [34]: 98%; residual activity [35]: 100%; residual activity [36]: 100%; residual activity [37]: 100%; residual activity [38]: 100%; inhibition (Rattus norvegicus): 90.5%
COc1ccc2c(c1)O[C@H](c1ccc(OC)c(OC)c1)C[C@@H]2NC(=O)C1(c2ccc3c(c2)OC(F)(F)O3)CC1 [A-1596584] | 1000 nM (not active) | 36.4 | 46 | -3.3 | 26.4 | -8.6 | 97 | 88 | 100 | 93 | 93 | 100 | 94 | 100 | 100 | 100 | 97 | 84 | 98 | 95 | residual activity [21]: 100%; residual activity [22]: 100%; residual activity [23]: 100%; residual activity [24]: 100%; residual activity [25]: 100%; residual activity [26]: 100%; residual activity [27]: 100%; residual activity [28]: 82%; residual activity [29]: 100%; residual activity [30]: 100%; residual activity [31]: 100%; residual activity [32]: 100%; residual activity [33]: 92%; residual activity [34]: 100%; residual activity [35]: 100%; residual activity [36]: 100%; residual activity [37]: 100%; residual activity [38]: 84%; inhibition (Rattus norvegicus): 66.6%
